In data set [1] the test system is Human Hepatocyte. Put plainly: Metabolic stability in human hepatocytes. The following applies: human cryopreserved hepatocytes, 1 μM. Format: in vitro ADME. On the procedure: The aim of this assay is to determine the metabolic stability of the compound in hepatocytes (cryopreserved) of different species. Low hepatocyte stability may result in the formation of unwanted metabolites, high clearance, and therefore is not desirable.
A 10 mM stock solution of test compound in DMSO was first diluted in DMSO to 3 mM, and then in modified Krebs-Henseleit buffer (Sigma, K3753) to 5 μM. This compound dilution was added to a suspension of pooled cryopreserved hepatocytes (BioreclamationIVT) at 37° C. under gentle shaking.
Final reaction conditions were: 1 μM of test compound, 0.03% DMSO, 0.5 million viable hepatocytes/mL, and 75 μL incubation volume.
Testosterone (1 μM) and 7-hydroxycoumarin (1 μM) were used, respectively as phase I and phase II metabolic reaction controls.
After 0, 10, 20, 45, 90, 120 and 180 min of incubation, the reaction was terminated with 225 μL of MeCN:MeOH (2:1) containing 100 ng/mL of diclofenac as analytical internal standard. Samples were mixed, centrifuged and the supernatant analyzed by LC-MS/MS.
The instrument responses (ratios of test compound and internal standard peak areas) were referenced to the zero time point samples (considered as 100%) in order to determine the percentage of compound remaining.
Plots of percentage compound remaining were used to determine the intrinsic clearance in the hepatocyte incubations using the following equations:
Scaled Clint [L/h/kg]=Clint [μL/min/10^6 cells]*#(10) cells/g liver*60*(1/10^6) Scaled Clint unbound [L/h/kg]=Clint [L/h/kg]/Fu,inc where: fu,inc equals hepatocyte binding, derived from microsomal binding (fu,mic) by following equation: […]

The test system of data set [2] is CL097 triggered TNFα release in human whole blood. The data set can be described thus: Ex vivo human TNFα release inhibition (whole blood assay). The following applies: CL097 2 μg/mL, 3 h 30 min. Format: cell-based. From the text: The aim of the assay is to evaluate the activity of compounds of the invention on the activated TLR/IRAK-4 pathway in an ex vivo human whole blood setting. Toll-like receptors (TLRs) are pattern recognition receptors that recognize a wide variety of microbial molecules, called pathogen-associated molecular patterns (PAMPs). Human TLR7 and TLR8 recognize imidazoquinoline compounds (e.g., CL097—CAS n #1026249-18-2) and single stranded RNAs as their natural ligands. Activation of TLRs leads to the production of several cytokines (e.g., IFNα, TNFα, IL-8, IL-6) by the TLR agonist-treated cells, whereas IRAK4 leads to the production of IFNα. Cytokine release is used as readout in this assay and represents a measure for the level of inhibition of the TLR/IRAK-4 pathway by the tested compound. It should be noted that in the context of the complete organism, other sources for these cytokines exist that are not dependent on the TLR/IRAK-4 pathway, such as e.g., macrophages (upon activation of the Fcγ receptor (Yan et al. 2012)) or T cells (upon activation of the T cell receptor (Brehm, Daniels, and Welsh 2005)).
Blood is collected from healthy volunteers into lithium heparin tubes by venipuncture, then gently inverted several times to prevent clotting and incubated for at least 15 min at 37° C. on a rocking mixer shaker. Then, 100 μL of blood is dispensed into polypropylene 96-well microplate and pre-incubated in duplicate with 0.3% DMSO or test compound at different concentrations (from 30 to 0.01 μM, 3-fold dilutions to get 0.3% DMSO at the final) for 15 min at 37° C. After this pre-incubation, blood is triggered with CL097 (2 μg/mL from 1 mg/mL solution in water; InvivoGen, tlr1-c97) for 3 h 30 min at 37° C. Microtubes are centrifuged at 5000×g for 10 min at 4° C. and approximately 40 μL of plasma are collected into a polystyrene 96-well plate. Plasma can be analyzed freshly, within 30 min after triggering, or frozen at −80° C. Finally, the quantification of IFNα and IFNα were performed in the plasma using AlphaLISA Kit for […] according to the manufacturer's instructions and read on the Ensight (PerkinElmer).
For each blood sample, the TNFα concentrations of the samples were determined from the fit. Data were then expressed as a percentage of inhibition (PIN) for each replicate using the formula:
With mean TNFα with CL097=mean TNFα concentration of replicate samples triggered with CL097; TNFαsample1=TNFα concentration of sample 1; mean TNFα with vehicle=mean TNFα concentration of replicate samples treated with vehicle.
Curve fitting for pIC50 determination were generated using mean PIN±sem. Graphs and pIC50 calculations were derived using Prism 5.03 software (GraphPad).

In general, IC50 refers to the concentration that gives 50% inhibition. The low end stands for inhibition by little substance, the high end for a need for much substance.

With `CC(F)(F)c1cccc(C(=O)Nc2cn3cc(C4COCCO4)nc3cc2C(N)=O)n1` (stereo not shown) [Compound 11, 6-(6-(1,1-difluoroethyl)picolinamido)-2-(1,4-dioxan-2-yl)imidazo[1,2-a]pyridine-7-carboxamide], the “Human Hepatocyte stability (Perc. remaining at 90 min)” value in data set [1] came to 99.15 Perc. Also, the IC50 in data set [2] lay within 0.0001 to 0.5 µM.

Turning to `COc1cc2nc(C3COCCO3)cn2cc1NC(=O)c1cccn(C2CC2)c1=O` (racemic) [Compound 1, 1-cyclopropyl-N-[2-(1,4-dioxan-2-yl)-7-methoxy-imidazo[1,2-a]pyridin-6-yl]-2-oxo-pyridine-3-carboxamide], the “Human Hepatocyte stability (Perc. remaining at 90 min)” value in data set [1] is 101.5 Perc. The same molecule showed an IC50 in data set [2] of 0.0001 to 0.5 µM. With `COc1cc2nc(C3COCCO3)cn2cc1NC(=O)c1cccn(C2CCC2)c1=O` (stereo not shown) [Compound 5, 1-cyclobutyl-N-[2-(1,4-dioxan-2-yl)-7-methoxy-imidazo[1,2-a]pyridin-6-yl]-2-oxo-pyridine-3-carboxamide], the half-inhibitory concentration (IC50) in data set [2] is 1 to 5 µM. Take `CNC(=O)c1cc2nc(C3COCCO3)cn2cc1NC(=O)c1cccc(C(F)(F)F)n1` (stereo not shown) [Compound 9, 2-(1,4-dioxan-2-yl)-N-methyl-6-(6-(trifluoromethyl)picolinamido)imidazo[1,2-a]pyridine-7-carboxamide]: the “Human Hepatocyte stability (Perc. remaining at 90 min)” value in data set [1] was found to be 92.1 Perc. In the case of `COc1cc2nc(C3CCS(=O)(=O)CC3)cn2cc1NC(=O)c1cccn(C2CC2)c1=O` [Compound 23, 1-cyclopropyl-N-(2-(1,1-dioxidotetrahydro-2H-thiopyran-4-yl)-7-methoxyimidazo[1,2-a]pyridin-6-yl)-2-oxo-1,2-dihydropyridine-3-carboxamide], the 50% inhibitory concentration (IC50) in data set [2] is 0.0001 to 0.5 µM.

The values are drawn from US20220296573A1, “NOVEL COMPOUNDS AND PHARMACEUTICAL COMPOSITIONS THEREOF FOR THE TREATMENT OF INFLAMMATORY DISORDERS” (Galapagos NV, priority 2019, published 2022).
